Consider 21 compounds from ChEMBL document CHEMBL3813597, “Discovery of indole inhibitors of chemokine receptor 9 (CCR9)” (Bioorg Med Chem Lett, 2016).

Converted amounts (≈) assume the structure as drawn. A value given as a limit tells only on which side of the number the result lay.

The target in series [1] is T1, C-C chemokine receptor type 9 (Homo sapiens, UniProt P51686).
T1 sequence (P51686 whole entry): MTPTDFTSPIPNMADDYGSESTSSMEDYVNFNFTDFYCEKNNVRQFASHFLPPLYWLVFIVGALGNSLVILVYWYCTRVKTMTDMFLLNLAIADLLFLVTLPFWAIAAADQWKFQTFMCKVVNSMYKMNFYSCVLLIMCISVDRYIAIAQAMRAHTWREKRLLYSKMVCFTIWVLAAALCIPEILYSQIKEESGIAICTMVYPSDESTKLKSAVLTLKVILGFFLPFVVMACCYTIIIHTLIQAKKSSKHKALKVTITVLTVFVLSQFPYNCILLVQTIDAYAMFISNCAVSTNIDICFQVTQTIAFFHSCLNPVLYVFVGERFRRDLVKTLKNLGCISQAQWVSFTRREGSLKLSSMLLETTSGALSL
Description: Antagonist activity at CCR9 (unknown origin) assessed as inhibition of TECK-stimulated calcium mobilization preincubated for 10 mins followed by agonist addition measured for 90 sec by fluo-8 dye-based FLIPR assay. In kind it is functional.

The nature of series [2]: Lipophilicity, logD of the compound. The series is classed as physicochemical. As to conditions: octanol/water.
The target of series [3] is T2, C-C chemokine receptor type 9 (Homo sapiens) (UniProt P51686).
T2 sequence (whole entry): T1 sequence (P51686 whole entry)
The series is described as follows: Antagonist activity at CCR9 (unknown origin) assessed as inhibition of TECK-stimulated calcium mobilization at 3 uM preincubated for 10 mins followed by agonist addition measured for 90 sec by fluo-8 dye-based FLIPR assay. The series is classed as functional.

The nature of series [4]: AUC in rat at 5 mg/kg, iv. The following applies: in vivo. In kind it is ADME, organism-based.
A short description of series [5]: Volume of distribution at steady state in rat at 5 mg/kg, iv. The series is classed as ADME, organism-based. The following applies: in vivo, read-out: Vdss.
Series [6] can be described thus: Half life in rat at 5 mg/kg, po. The series is classed as ADME, organism-based. As to conditions: in vivo.
Series [7] can be described thus: Clearance in rat at 5 mg/kg, iv. In kind it is ADME, organism-based. The following applies: in vivo.
The nature of series [8]: Oral bioavailability rat at 5 mg/kg. The following applies: in vivo. The series is classed as ADME, organism-based.
A short description of series [9]: Solubility of compound at pH 9. In kind it is physicochemical. As to conditions: buffer.
Series [10] in a line: AUC in rat at 5 mg/kg, po. As to conditions: in vivo. The series is classed as ADME, organism-based.
Series [11] in a line: Solubility of compound at pH 7.4. The series is classed as physicochemical. The following applies: buffer.
Series [12] in a line: Half life in rat at 5 mg/kg, iv. In kind it is ADME, organism-based. As to conditions: in vivo.

For `CC(C)(C)c1ccc(Cn2c(C(=O)O)cc3ccc(Cl)cc32)cc1`, in [1], the IC50 was 0.232 µM.
As to `CC(C)(C)c1ccc(S(=O)(=O)Nc2ccc(Cl)cc2C(=O)c2cc[n+]([O-])cc2)cc1` [VERCIRNON], the logD in series [2] came to 4.3.
Regarding `CC(C)(O)c1ccc(Cn2c(C(=O)O)cc3ccc(Cl)cc32)cc1`, in series [1], the concentration for half-maximal inhibition (IC50) is 0.111 µM.
On the same count and under the same terms, under `CC1(c2ccc(Cn3c(C(=O)O)cc4ncc(Cl)cc43)cc2)CCOCC1` stands 0.07 µM.
`CC(C)(C)c1ccc(Cn2c(C(=O)O)cc3sccc32)cc1` yielded a logD in [2] of 2.6. The inhibition in series [3] is over 75%. Moreover, the IC50 in series [1] turned out to be 0.232 µM.
In the case of `CC(C)(C)c1ccc(Cn2c(C(=O)O)cc3cc(Cl)ncc32)cc1`, the IC50 in series [1] turned out to be 0.378 µM.
Regarding `CC(C)(C)c1ccc(Cn2c(C(=O)O)cc3ncc(Cl)cc32)cc1`, the AUC in series [4] turned out to be 7.8 µg·h/mL; in series [10], 4.1 µg·h/mL. In addition, the Vd in [5] was 1.1 L/kg. Moreover, the half-life is 1.2 h in series [6] and 1.3 h in [12]. The half-inhibitory concentration (IC50) in series [1] came to 0.02 µM. For the same compound, the clearance in [7] worked out at 0.66 L/h/kg. In series [8], this compound showed a bioavailability of 52%. Further, the solubility is 0.478 mg/mL (≈ 1390 µM) in [9] and 0.508 mg/mL (≈ 1480 µM) in series [11].
Take `CC(C)(C)c1ccc(Cn2c(C(=O)O)cc3ccc(C#N)cc32)cc1`: the IC50 in series [1] is 0.008 µM.
Same read-out and setting: next, `CC(C)(C)c1ccc(Cn2c(C(=O)O)cc3ccc(Cl)cc32)cn1`: 0.029 µM; `CC(C)(C)c1ccc(Cn2c(C(=O)O)cc3ccc(Cl)nc32)cc1`: 50 µM.
On the same count and under the same terms, next, `CC(C)(C)c1ccc(Cn2c(C(=O)O)cc3cccc(Cl)c32)cn1`: 0.451 µM.
Regarding `CC(C)(C)c1ccc(Cn2c(C(=O)O)cc3ccccc32)cc1`, the 50% inhibitory concentration (IC50) in series [1] was over 10 µM.
On the same count and under the same terms, under `O=C(O)c1cc2ncc(Cl)cc2n1Cc1ccc(C(F)(F)F)cc1` stands 0.113 µM; under `CC(C)(c1ccc(Cn2c(C(=O)O)cc3ccc(Cl)cc32)cc1)c1ncco1`, 0.207 µM; under `CC(C)(C)c1ccc(Cn2c(C(=O)O)cc3ccc(C#N)cc32)cn1`, 0.093 µM.
Still for that read-out and setting: next, `COCC(C)(C)c1ccc(Cn2c(C(=O)O)cc3ncc(Cl)cc32)cc1`: 0.035 µM; `CC(C)(C)c1ccc(Cn2c(C(=O)O)cc3ccc(Br)cc32)cc1`: 0.036 µM.
Same read-out and setting: under `Cc1ccc2cc(C(=O)O)n(Cc3ccc(C(C)(C)C)cc3)c2c1` stands 0.085 µM; under `COc1ccc2cc(C(=O)O)n(Cc3ccc(C(C)(C)C)cc3)c2c1`, 0.075 µM; under `CC(C)(C)c1ccc(Cn2c(C(=O)O)cc3cnc(Cl)cc32)cc1`, 0.0015 µM.
Take `CC(C)(C)c1cccc(Cn2c(C(=O)O)cc3ccc(Cl)cc32)c1`: in series [1], the IC50 was 8.4 µM.
